Tests used:
YAP-TEAD = assay: Luciferase assay of YAP-TEAD binding inhibition (TEAD luciferase reporter 8XGTIIC in HEK293T cells); assay type: cell-based; conditions: 10 μM, 24 hours, luciferase normalized with β-galactosidase
Description: A Luciferase assay which allows an inhibition degree of YAP-TEAD, previously reported in Cancers 2018, 10(5), 140, was used to measure an in vitro binding inhibition rate of YAP-TEAD.
HEK293T cells were purchased from American Type Culture Collection and incubated in DMEM media containing 10% FBS, L-glutamine, and penicillin/streptomycin. The HEK293T cells were seeded in a 24 well plate at a density of 1×10^5, and coated with polyethyleneamine (10 μg/mL). These cells were transfected with 8XGTIIC-luciferase (Addgene reference 34615) which is TEAD luciferase reporter plasmid and control β-galactosidase plasmid CMV-β-Gal using a lipofectamine 2000 reagent (Life Technologies, Inc.) according to the manufacturer's manual. Thereafter, the compound of the present invention was treated at a concentration of 10 μM for 24 hours, the cells were lysed using a Reporter lysis buffer (Promega, France), luciferase activity was read with a Mithras LB940 plate reader, and then normalization was performed with β-galactosidase.

HT29 cells = assay: Proliferation assay for HT29 colorectal cancer cells (CellTiter-Glo cell viability); assay type: cell-based; conditions: Homo sapiens, HT-29; HT29 colorectal cancer cell line, 72 hours, ATP detection
Description: HT-29 which is a commercially available colorectal cancer cell line was treated with trypsin-EDTA, incubated, and seeded in a 96 well plate. […] The treated cells were incubated for further 72 hours and cell viability was measured by an ATP detection method (CellTiter-Glo LuminescentCell Viability Assay, Promega).
In order to confirm the anticancer effect of the compounds according to the present invention, a proliferation assay for HT29 cells which are a colorectal cancer cell line was performed by the above method, and IC50 values as a result are listed in the following Table 4: […]

| SMILES | Inhibition(%) (YAP-TEAD) | IC50 (HT29 cells) |
| --- | --- | --- |
| CS(=O)(=O)N1CCC(CCN2C(=O)c3cccc4c(NC(=O)C5CCCCN5S(=O)(=O)c5ccco5)ccc2c34)CC1 (stereo not drawn) [Compound 139] | 98% | – |
| COCCCN1C(=O)c2cccc3c(NC(=O)C4CCCN(S(=O)(=O)c5ccc(OCCOC)c(C)c5)C4)ccc1c23 (stereo not drawn) [Compound 122] | 68% | 6.5 µM |
| COCCCN1C(=O)c2cccc3c(NC(=O)C4CCCCN4S(=O)(=O)c4ccc(NC(C)=O)cc4)ccc1c23 (stereo not drawn) [Compound 153] | 55% | – |
| COCCCN1C(=O)c2cccc3c(NC(=O)C4CCCN(S(=O)(=O)c5ccc(OCCN(C)C)c(C)c5)C4)ccc1c23 (stereo not drawn) [Compound 123] | 54% | – |
| COCCCN1C(=O)c2cccc3c(NC(=O)C4CCCN(S(=O)(=O)c5ccc(-c6ccccc6)s5)C4)ccc1c23 (stereo not drawn) [Compound 158] | 61% | – |
| COCCCN1C(=O)c2cccc3c(NC(=O)C4CCCN(S(=O)(=O)c5ccc(F)cc5)C4)ccc1c23 (stereo not drawn) [Compound 161] | 88% | – |
| COCCCN1C(=O)c2cccc3c(NC(=O)C4CCCCN4S(=O)(=O)c4c(Cl)nc5sccn45)ccc1c23 (stereo not drawn) [Compound 78] | 53% | 30.1 µM |
| COCCCN1C(=O)c2cccc3c(NC(=O)C4CCCN(S(=O)(=O)c5cccc6cccnc56)C4)ccc1c23 (stereo not drawn) [Compound 75] | 93% | 16.8 µM |
| COCCCN1C(=O)c2cccc3c(NC(=O)C4CCCCN4S(=O)(=O)c4ccc(Br)s4)ccc1c23 (stereo not drawn) [Compound 60] | 67% | 12.5 µM |
| COCCCN1C(=O)c2cccc3c(NC(=O)C4CCCCN4S(=O)(=O)c4ccco4)ccc1c23 (stereo not drawn) [Compound 160] | 53% | – |
| COCCCN1C(=O)c2cccc3c(NC(=O)C4CCCN(S(=O)(=O)c5c(C)n[nH]c5C)C4)ccc1c23 (stereo not drawn) [Compound 36] | 54% | – |
| CS(=O)(=O)N1CCCCC1C(=O)Nc1ccc2c3c(cccc13)C(=O)N2Cc1ccccc1 (stereo not drawn) [Compound 9] | – | 25.3 µM |
| O=C(Nc1ccc2c3c(cccc13)C(=O)N2CCc1c[nH]c2ccccc12)C1CCCCN1S(=O)(=O)c1cccs1 (stereo not drawn) [Compound 13] | 50% | – |
| COCCCN1C(=O)c2cccc3c(NC(=O)C4CCCCN4S(=O)(=O)c4cc([N+](=O)[O-])c(Cl)s4)ccc1c23 (stereo not drawn) [Compound 38] | – | 2.2 µM |
| COCCCN1C(=O)c2cccc3c(NC(=O)C4CCCCN4S(=O)(=O)c4ccc(-c5ccccc5)s4)ccc1c23 (stereo not drawn) [Compound 159] | 84% | – |
| COCCCN1C(=O)c2cccc3c(NC(=O)C4CCCN(S(=O)(=O)c5csc6ccccc56)C4)ccc1c23 (stereo not drawn) [Compound 76] | 87% | – |
| CS(=O)(=O)N1CCC(CCN2C(=O)c3cccc4c(NC(=O)C5CCCCN5S(=O)(=O)c5cccs5)ccc2c34)CC1 (stereo not drawn) [Compound 106] | 99.2% | – |
| Cc1ccc(S(=O)(=O)N2CCCCC2C(=O)Nc2ccc3c4c(cccc24)C(=O)N3Cc2ccccc2)cc1 (stereo not drawn) [Compound 5] | – | 7.1 µM |
| O=C(Nc1ccc2c3c(cccc13)C(=O)N2CCS(=O)(=O)c1ccccc1)C1CCCN(S(=O)(=O)c2ccc3c(c2)CCO3)C1 (stereo not drawn) [Compound 155] | 66% | – |
| CS(=O)(=O)N1CCC(CCN2C(=O)c3cccc4c(NC(=O)C5CCCN(S(=O)(=O)c6ccco6)C5)ccc2c34)CC1 (stereo not drawn) [Compound 136] | 80% | – |
| COCCCN1C(=O)c2cccc3c(NC(=O)C4CCCN(S(=O)(=O)c5c(C)c(C)c6c(c5C)CC(C)(C)O6)C4)ccc1c23 (stereo not drawn) [Compound 50] | 63% | – |
| O=C(Nc1ccc2c3c(cccc13)C(=O)N2Cc1ccncc1)C1CCCCN1S(=O)(=O)c1cccs1 (stereo not drawn) [Compound 18] | – | 26.4 µM |
| COc1ccc(CCN2C(=O)c3cccc4c(NC(=O)C5CCC(NS(=O)(=O)c6cccs6)CC5)ccc2c34)cc1 (stereo not drawn) [Compound 22] | 78% | – |
| COc1ccc(CCN2C(=O)c3cccc4c(NC(=O)[C@H]5CC[C@H](NS(=O)(=O)c6cccs6)CC5)ccc2c34)cc1 [Compound 25] | 61% | – |
| COCCCN1C(=O)c2cccc3c(NC(=O)C4CCCN(S(=O)(=O)c5cccs5)C4)ccc1c23 (stereo not drawn) [Compound 28] | 81% | – |
| COCCCN1C(=O)c2cccc3c(NC(=O)C4CCCN(S(=O)(=O)c5sc6ccc(Cl)cc6c5C)C4)ccc1c23 (stereo not drawn) [Compound 48] | 58% | – |
| O=C(Nc1ccc2c3c(cccc13)C(=O)N2Cc1ccccc1)C1CCCN1S(=O)(=O)c1cccs1 (stereo not drawn) [Compound 3] | 63% | – |

| SMILES | Inhibition(%) (YAP-TEAD) | IC50 (HT29 cells) |
| --- | --- | --- |
| COCCCN1C(=O)c2cccc3c(NC(=O)C4CCCCN4S(=O)(=O)c4cccc(F)c4)ccc1c23 (stereo not drawn) [Compound 162] | 74% | – |
| COCCCN1C(=O)c2cccc3c(NC(=O)C4CCCN(S(=O)(=O)c5ccc6c(c5)OCCO6)C4)ccc1c23 (stereo not drawn) [Compound 49] | 51% | – |
| COc1ccc(CCN2C(=O)c3cccc4c(NC(=O)C5CCCN(S(=O)(=O)c6cccs6)C5)ccc2c34)cc1 (stereo not drawn) [Compound 24] | 61% | – |
| COCCCN1C(=O)c2cccc3c(NC(=O)C4CCCN(S(=O)(=O)c5ccc(-c6ccccc6)cc5)C4)ccc1c23 (stereo not drawn) [Compound 151] | 57% | – |
| COCCCN1C(=O)c2cccc3c(NC(=O)C4CCCN(S(=O)(=O)c5ccc6c(c5)OC(F)(F)O6)C4)ccc1c23 (stereo not drawn) [Compound 149] | 59% | – |
| O=C(Nc1ccc2c3c(cccc13)C(=O)N2Cc1ccccc1)C1CCCCN1S(=O)(=O)c1ccc([N+](=O)[O-])cc1 (stereo not drawn) [Compound 6] | – | 7.29 µM |
| CS(=O)(=O)N1CCC(CCN2C(=O)c3cccc4c(NC(=O)C5CCCCN5S(=O)(=O)c5ccc6c(c5)CCO6)ccc2c34)CC1 (stereo not drawn) [Compound 133] | 59% | – |
| O=C(Nc1ccc2c3c(cccc13)C(=O)N2CCc1ccc(Cl)cc1Cl)C1CCCCN1S(=O)(=O)c1cccs1 (stereo not drawn) [Compound 26] | 100% | – |
| COCCCN1C(=O)c2cccc3c(NC(=O)C4CCCCN4S(=O)(=O)c4ccc(-c5ccccc5)cc4)ccc1c23 (stereo not drawn) [Compound 152] | 77% | – |
| COCCCN1C(=O)c2cccc3c(NC(=O)C4CCCN(S(=O)(=O)c5ccc6c7c(cccc57)C(=O)N6)C4)ccc1c23 (stereo not drawn) [Compound 55] | 50% | – |
| O=C(Nc1ccc2c3c(cccc13)C(=O)N2CCCO)C1CCCCN1S(=O)(=O)c1cccs1 (stereo not drawn) [Compound 45] | – | 40.4 µM |
| O=C(Nc1ccc2c3c(cccc13)C(=O)N2CCS(=O)(=O)c1ccccc1)C1CCCCN1S(=O)(=O)c1ccc2c(c1)CCO2 (stereo not drawn) [Compound 156] | 64% | – |
| COCCCN1C(=O)c2cccc3c(NC(=O)C4CCCN(S(=O)(=O)c5ccc(-c6ccccn6)s5)C4)ccc1c23 (stereo not drawn) [Compound 119] | 68% | – |
| COCCCN1C(=O)c2cccc3c(NC(=O)C4CCCN(S(=O)(=O)c5sc(NC(C)=O)nc5C)C4)ccc1c23 (stereo not drawn) [Compound 47] | – | 29.2 µM |
| COCCCN1C(=O)c2cccc3c(NC(=O)C4CCCN(S(=O)(=O)c5cc6c(s5)CCCC6)C4)ccc1c23 (stereo not drawn) [Compound 65] | – | 17.5 µM |
| COCCCN1C(=O)c2cccc3c(NC(=O)C4CCCCN4S(=O)(=O)c4ccccc4)ccc1c23 (stereo not drawn) [Compound 138] | 79% | – |
| COCCCN1C(=O)c2cccc3c(NC(=O)C4CCCN(S(=O)(=O)c5cc(Br)c(Br)s5)C4)ccc1c23 (stereo not drawn) [Compound 61] | – | 5.6 µM |
| COCCCN1C(=O)c2cccc3c(NC(=O)C4CCCN(S(=O)(=O)c5ccccc5)C4)ccc1c23 (stereo not drawn) [Compound 137] | 87% | – |
| COCCCN1C(=O)c2cccc3c(NC(=O)C4CCCN(S(=O)(=O)c5c(C)noc5C)C4)ccc1c23 (stereo not drawn) [Compound 35] | 56% | – |
| CS(=O)(=O)N1CCC(CCN2C(=O)c3cccc4c(NC(=O)C5CCCN(S(=O)(=O)c6cccs6)C5)ccc2c34)CC1 (stereo not drawn) [Compound 131] | 78% | – |
| COCCCN1C(=O)c2cccc3c(NC(=O)C4CCCCN4S(=O)(=O)c4scnc4C)ccc1c23 (stereo not drawn) [Compound 81] | – | 45.4 µM |
| COCCCN1C(=O)c2cccc3c(NC(=O)C4CCCCN4S(=O)(=O)c4ccc(N)cc4)ccc1c23 (stereo not drawn) [Compound 145] | 53% | – |
| COCCCN1C(=O)c2cccc3c(NC(=O)C4CCCN(S(=O)(=O)c5cc(Cl)sc5Cl)C4)ccc1c23 (stereo not drawn) [Compound 71] | 91% | – |
| COCCCN1C(=O)c2cccc3c(NC(=O)C4CCCCN4S(=O)(=O)c4cccc(C(F)(F)F)n4)ccc1c23 (stereo not drawn) [Compound 82] | – | 30.6 µM |
| COCCN1C(=O)c2cccc3c(NC(=O)C4CCCCN4S(=O)(=O)c4cccs4)ccc1c23 (stereo not drawn) [Compound 12] | – | 30.7 µM |
| CS(=O)(=O)N1CCC(CCN2C(=O)c3cccc4c(NC(=O)C5CCCCN5S(=O)(=O)c5ccc6c(c5)OCCO6)ccc2c34)CC1 (stereo not drawn) [Compound 134] | 62% | – |

— US20220017491A1, “COMPOUND INHIBITING YAP-TEAD BINDING, AND PHARMACEUTICAL COMPOSITION FOR PREVENTING OR TREATING CANCER, COMPRISING COMPOUND AS ACTIVE INGREDIENT” (KOREA RESEARCH INSTITUTE OF CHEMICAL TECHNOLOGY, priority 2018, published 2022)
